# Entries after “also recorded” stand apart in the source; their conditions may differ.
# How the values were obtained:
# [1] = system: lung cancer cell line NCI-H23; test: Luciferase (pGL3) transfection efficiency of lipoplexes, NCI-H23; assay type: cell-based, human; settings: for transfection efficiency, counterion study: 5Myr/Chol 1:1, PBS, sonicated two sequences of 15 minutes, FIG. 5; for transfection efficiency (in words): cholesterol as helper lipid 1:1, charge ratio lipid/DNA 2:1
# Protocol: (§1) The three series of cationic lipids newly synthesized were assessed for their transfection efficiency in vitro, using the experimental conditions optimized in a previous study.^23 Essentially the cationic lipids were mixed with cholesterol at a 1:1 molar ratio, dissolved in chloroform/methanol and dried under vacuum to generate a lipid film. The dried lipid film was hydrated with sterile phosphate buffer isotonic saline with pH=7.4 (PBS) and sonicated to yield cationic liposomes. The resulting liposomal solution was allowed to react with a DNA solution to form the final cationic lipid-DNA complexes (lipoplexes), which were assessed for transfection efficiency using different cell cultures. We used a pGL3 plasmid (Promega, Madison, Wisc.), encoding a firefly luciferase gene under the control of the constitutively active SV40 promoter as the reporter for the transfection efficiency. An optimal^23 electrostatic charge ratio cationic lipid/DNA of 2:1 was used in all preparations. […] The ability of these new cationic lipids to generate relatively small cationic liposomes could be attributed to the relatively large curvature radius induced in the bilayer by the bulky pyridinium cationic head.
# (§2) Dioleoylphosphatidylethanolamine (DOPE), cholesterol (CHOL), N-(2,3-dioleoyloxypropyl)-N,N,N-trimethylammonium chloride (DOTAP) were commercial products. The purity of the lipids was checked by thin layer chromatography and also by differential scanning calorimetry (DSC), which was also used for determining the critical temperature Tc. For the preparation of the liposomes a protocol optimized for this type of compounds was adopted as follows. The cationic lipid (with or without helper lipid) was dissolved in chloroform/methanol (2/1, v/v) to reach a final concentration of 1 mM for the charged species. From this stock solution 50 μL were aliquoted in a 1 mL tube and the solvent was evaporated in a SpeedVac evaporator, under vacuum, for 1 h. The dried lipid film was prepared by removing the traces of organic solvent in a dessicator, over Drierite®, under vacuum, overnight. The film was hydrated with 500 μL sterile phosphate buffer saline (PBS) the tube was purged with sterile N2, and vortexed for 1 minute. The liposomes were generated by sonicating the tube in a water bath sonicator for 5-30 minutes at 62° C. and at 37° C. for DOTAP. After sonication the preparations were allowed to reach room temperature.
# For generating the lipoplexes, 1.4-2.8 μL plasmid DNA solution (0.5 μg/μL) was diluted with 100 μL Optimem®. A liposome solution was prepared separately by diluting the initial liposomal stock solution (0.1 mM in cationic lipid) with Optimem® in specified proportions, to reach a final volume of 50 μL. Over this liposome solution 50 μL of the DNA stock solution was added, the tube was incubated for 30 minutes at room temperature and then the content diluted with 500 μL Optimem® (final volume of the lipoplex stock solution: 600 μL).
# The lipoplexes was tested for their transfection properties over five different cancer cell lines—breast carcinoma (MCF-7 and MDA-Mb231), lung carcinoma (NCI-H23), prostate carcinoma (DU-145) and brain carcinoma (SWB-95). The cells were maintained in 10% fetal bovine serum (FBS)—enriched RPMI 1640 at 37° C. and 5% CO2 in a humidified atmosphere. Twenty-four hours prior to transfection the cells were transferred in 96-wells microtiter plate at a density of 20,000 cells/well. Each well received 100 μL medium and the plate was incubated in the same conditions. All experiments were done in triplicate or quadruplicate.
# Immediately before transfection the medium was removed from each well and the cells were briefly washed with 200 μL sterile PBS. After removal of the PBS each well received 100 μL lipoplex stock solution and the plate was placed in the incubator for 1 hour. Then, 100 μL medium was added to each well and the plate was incubated for 24 hours. […]
# [2] = system: lung cancer cell line NCI-H23; test: as above; assay type: cell-based, human; settings: exposure from one hour to three hours; data not shown
# [3] = Critical (phase transition) temperature Tc by differential scanning calorimetry; assay type: physicochemical; settings: for Tc (critical temperature), Pure: pure lipid; for Tc (phase transition temperature): lipids 21 and 25, DSC, heating rate 5° C./minute
# Protocol: General. Melting points for the diols and the phase transition temperature Tc for the cationic lipids were determined by differential scanning calorimetry (DSC), using a TA-Instruments Q100 DSC, and a heating rate of 5° C./minute. The IR spectra were recorded on a Nicolet Avatar 360 FTIR spectrophotometer in the range 650-4000 cm^−1 using a ZnSe—attenuated total reflectance (ATR) accessory. The compounds were solved in a small amount of solvent (MeOH for the diols, CHCl3 for the lipids), and the resulted solutions were left to evaporate to dryness on the surface of the ZnSe crystals of the ATR accessory. The NMR spectra were recorded at ≈303 K with a Varian Inova spectrometer equipped with a 5 mm indirect detection probe, operating at 500 MHz for ^1H-NMR and at 125 MHz for ^13C-NMR. Chemical shifts are reported as δ values, using TMS as internal standard for proton spectra and the solvent resonance for carbon spectra. Assignments were made based on signal intensity, selective decoupling, COSY (^1H-^1H) and HETCOR (^1H-^13C) sequences. Elemental analyses were performed by combustion, using a Perkin Elmer 2400 Series II CHNS analyser.
# as §2
# Materials and Methods. Melting points for the diols, acetates and ketals were determined on a Boetius heating plate microscope and are uncorrected. For the cationic lipids 21 and 25 the phase transition temperature Tc was determined by differential scanning calorimetry (DSC), using a TA-Instruments Q100 DSC, and a heating rate of 5° C./minute. The IR spectra were recorded on a Nicolet Avatar 360 FTIR spectrophotometer, in the range 650-4000 cm^−1, using a ZnSe—attenuated total reflectance (ATR) accessory. The compounds were solved in a small amount of solvent (MeOH for the diols, CHCl3 for the esters), the resulted solutions being left to evaporate to dryness on the surface of the ZnSe crystals of the ATR accessory. This technique was imposed by the poor results obtained in transmission mode for some of the compounds, due to the lack of crystallization, hygroscopicity and other problems related with working with KBr pellets. The NMR spectra were recorded at ≈303 K with a Varian Gemini 300BB spectrometer operating at 300 MHz for ^1H and at 75 MHz for ^13C. Chemical shifts are reported as δ values, using TMS as internal standard for proton spectra and the solvent resonance for carbon spectra: 77.00 ppm in CDCl3, 39.50 ppm in DMSO-d6, the line from 123.50 ppm in pyridine-d5, 62.80 ppm in nitromethane-d3, 30.10 ppm in dimethylformamide-d7. Assignments were made based on signal intensity, selective decoupling and COSY (^1H-^1H) and HETCOR (^1H-^13C) sequences. Nitrogen elemental analysis was performed by combustion, mixing the samples with small amounts of quartz sand.
# cancer cell line NCI-H23 = test: WST-1 viability assay of transfected cells; assay type: cell-based, human; settings: for cytotoxicity (WST-1 viability): NCI-H23 transfected with lipoplexes, Chol 1:1, FIG. 6
# Protocol: FIG. 6. Viability assay results for the cancer cell line NCI-H23 transfected with 5AMyr-5EMyr and DOTAP (Cl^−)-based lipoplexes. The other characteristics were the same as in the transfection experiment represented in FIG. 5.
# In order to assess the cytotoxicity associated with every anion, a WST-1^28 viability assay was conducted in parallel.
# [4] = Cationic liposome size by dynamic light scattering; assay type: physicochemical
# Protocol: as §1, §2
# [5] = cholesterol at 1:1 molar ratio to cationic lipid
# [6] = molar ratio of cholesterol to lipid halved
Structure (SMILES),"Tc (critical temperature), Pure [3]","Tc (critical temperature), With cholesterol (1:1 molar ratio) ([3]; 1:1 molar ratio)",cytotoxicity (WST-1 viability) (cancer cell line NCI-H23),transfection efficiency (in words) [1],also measured
CC(=O)OCC(COC(C)=O)[n+]1c(C)cc(C)cc1C.F[B-](F)(F)F,,,,,melting point: 110 to 111 °C
"CCCCCCCCCCCCCC(=O)OCC(COC(=O)CCCCCCCCCCCCC)[n+]1c(C)cc(C)cc1C.[Cl-] [Lipid 5DMyr, 1-(1,3-dimyristoyloxypropane-2-yl)-2,4,6-trimethylpyridinium chloride]",76.3 °C,81.2 °C,minimum cytotoxicity; also recorded: lower cytotoxic effect,,"transfection efficiency, counterion study [1]: surpassed DOTAP in transfection efficiency; transfection efficiency on longer cell exposure to lipoplexes [2]: higher transfection efficiencies; cytotoxic effect on longer cell exposure to lipoplexes (cancer cell line NCI-H23; exposure from one hour to three hours, data not shown): without any visible cytotoxic effect"
"CCCCCCCCCCCCCC(=O)OCC(C[n+]1c(C)cc(C)cc1C)OC(=O)CCCCCCCCCCCCC.F[P-](F)(F)(F)(F)F (centres unmarked) [Lipid 3AMyr, 1-(2,3-dimyristoyloxypropyl)-2,4,6-trimethylpyridinium hexafluorophosphate]",121.3 °C,112.5 °C,,highest transfection peaks,"average size of the cationic vesicles [4, 5]: 132 nm; average size of the cationic vesicles [4, 6]: 89 nm; Tc (critical temperature), With DOPE (1:1 molar ratio) ([3]; with DOPE, 1:1 molar ratio): 107.7 °C"
"CCCCCCCC/C=C\CCCCCCCC(=O)OCC(C[n+]1c(C)cc(C)cc1C)OC(=O)CCCCCCC/C=C\CCCCCCCC.F[P-](F)(F)(F)(F)F (centres unmarked) [Lipid 3AOle, 1-(2,3-dioleoyloxypropyl)-2,4,6-trimethylpyridinium hexafluorophosphate]",67.9 °C,58.5 °C,,secondary peak,"average size of the cationic vesicles [4, 5]: 113 nm; average size of the cationic vesicles [4, 6]: 103 nm"
"CCCCCCCCCCCCCC(=O)OCC(COC(=O)CCCCCCCCCCCCC)[n+]1c(C)cc(C)cc1C.F[B-](F)(F)F [Lipid 5CMyr, 1-(1,3-dimyristoyloxypropane-2-yl)-2,4,6-trimethylpyridinium tetrafluoroborate]",58.4 °C,55.2 °C,minimum cytotoxicity,,
"CCCCCCCCCCCCCC(=O)OCC(COC(=O)CCCCCCCCCCCCC)[n+]1c(C)cc(C)cc1C.[O-][Cl+3]([O-])([O-])[O-] [Lipid 5BMyr, 1-(1,3-dimyristoyloxypropane-2-yl)-2,4,6-trimethylpyridinium perchlorate]",60.2 °C,58.4 °C,more cytotoxic,,"transfection efficiency, counterion study [1]: most efficient lipoplexes"
"CCCCCCCCCCCC(=O)Oc1ccc(CC[n+]2c(C)cc(C)cc2C)cc1OC(=O)CCCCCCCCCCC.F[P-](F)(F)(F)(F)F [Lipid 7ALau, 1-(3,4-dilauroyloxyphenylethyl)-2,4,6-trimethylpyridinium hexafluorophosphate]",140.7 °C,126.9 °C,,best transfection efficiency,"transfection efficiency relative to another derivative of series 7 ([1]; cholesterol 1:1, FIG. 2): about five times more active than the decanoyl derivative 7ACpc; also recorded: about ten times more efficient than the oleoyl derivative 7AOle"
"CCCCCCCCCCCCCC(=O)OCC(COC(=O)CCCCCCCCCCCCC)[n+]1c(C)cc(C)cc1C.[I-] [Lipid 5EMyr, 1-(1,3-dimyristoyloxypropane-2-yl)-2,4,6-trimethylpyridinium iodide]",60.8 °C,80.1 °C,more cytotoxic,,"transfection efficiency, counterion study [1]: followed by the hexafluorophosphate 5AMyr, chloride 5DMyr, tetrafluoroborate 5CMyr, and iodide 5EMyr"
CC(=O)OCC(C[n+]1c(C)cc(C)cc1C)OC(C)=O.F[B-](F)(F)F (centres unmarked),,,,,melting point: 119 to 120 °C
"CCCCCCCCCCCC(=O)OCC(C[n+]1c(C)cc(C)cc1C)OC(=O)CCCCCCCCCCC.F[P-](F)(F)(F)(F)F (centres unmarked) [Lipid 3ALau, 1-(2,3-dilauroyloxypropyl)-2,4,6-trimethylpyridinium hexafluorophosphate]",114.0 °C,106.7 °C,,,
"CCCCCCCC/C=C\CCCCCCCC(=O)OCC(COC(=O)CCCCCCC/C=C\CCCCCCCC)[n+]1c(C)cc(C)cc1C.F[P-](F)(F)(F)(F)F [Lipid 5AOle, 1-(1,3-dioleoyloxypropane-2-yl)-2,4,6-trimethylpyridinium hexafluorophosphate]",17.0 °C,31.0 °C,,low transfection efficiency,
"CCCCCCCC/C=C\CCCCCCCC(=O)OCC(C[n+]1c(C)cc(C)cc1C)OC(=O)CCCCCCC/C=C\CCCCCCCC.F[B-](F)(F)F (centres unmarked) [Lipid 21AbO, 1-(2,3-Dioleoyloxypropyl)-2,4,6-trimethylpyridinium tetrafluoroborate]",,,,,Tc (phase transition temperature) [3]: 52 °C
"CCCCCCCCCCCCCCCCCC(=O)OCC(C[n+]1c(C)cc(C)cc1C)OC(=O)CCCCCCCCCCCCCCCCC.[O-][Cl+3]([O-])([O-])[O-] (centres unmarked) [Lipid 21AaS, 1-(2,3-Distearoyloxypropyl)-2,4,6-trimethylpyridinium perchlorate]",,,,,Tc (phase transition temperature) [3]: 110 °C

# Reference: patent US7456197B2, “Pyridinium cationic lipids as gene transfer agents” (The Texas A&M University System, priority 2003, dated 2008)
